“And” between values parts separate entries of the source, which are not always exact repeats. Equal entries are not always repeated. Inconclusive results and toxic doses are left out.
System: CD2F1 mice, L1210 leukemia ip, survival T/C
Experiment: NCI In Vivo Anticancer Drug Screen. Data for tumor model L1210 Leukemia (intraperitoneal) in CD2F1 (CDF1) mice
Details: higher = longer survival
Summary of the method: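 Antitumor effect is scored in animals hosting a serially transplanted tumor. Values compare compound-dosed animals against vehicle-only controls as a simple quotient.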

[1] = endpoint: mean survival time, dose: 100.0 mg/kg/injection, schedule: Q01DX009 (ip), vehicle: saline with Tween-80
[2] = endpoint: mean survival time, dose: 200.0 mg/kg/injection, schedule: Q01DX009 (ip), vehicle: saline with Tween-80
[3] = endpoint: mean survival time, dose: 400.0 mg/kg/injection, schedule: Q01DX009 (ip), vehicle: saline with Tween-80
[4] = endpoint: mean survival time, dose: 100.0 mg/kg/injection, schedule: Q01DX001 (ip), vehicle: saline with Tween-80
[5] = endpoint: mean survival time, dose: 100.0 mg/kg/injection, schedule: Q04DX003 (ip), vehicle: saline with Tween-80
[6] = endpoint: mean survival time, dose: 200.0 mg/kg/injection, schedule: Q04DX003 (ip), vehicle: saline with Tween-80
[7] = endpoint: mean survival time, dose: 100.0 mg/kg/injection, schedule: Q04DX002 (ip), vehicle: saline with Tween-80
[8] = endpoint: mean survival time, dose: 200.0 mg/kg/injection, schedule: Q04DX002 (ip), vehicle: saline with Tween-80
[9] = endpoint: mean survival time, dose: 400.0 mg/kg/injection, schedule: Q04DX002 (ip), vehicle: saline with Tween-80
[10] = endpoint: mean survival time, dose: 25.0 mg/kg/injection, schedule: Q01DX009 (ip), vehicle: saline with Tween-80
[11] = endpoint: mean survival time, dose: 50.0 mg/kg/injection, schedule: Q01DX009 (ip), vehicle: saline with Tween-80

CC(=O)Nc1ccc(OC(=O)Nc2ccc(F)c(Cl)c2)cc1
T/C [1]: 98 % of control | T/C [2]: 93 % of control | T/C [3]: 110 % of control

CCc1ncnc2cc(OCC3CO3)c(OC)cc12 (centres undefined)
T/C (endpoint: median survival time, dose: 6.25 mg/kg/injection, schedule: Q01DX009 (ip), vehicle: saline with Tween-80): 109 % of control | T/C (endpoint: median survival time, dose: 6.25 mg/kg/injection, schedule: Q01DX009 (ip), vehicle: saline): 112 % of control | T/C (endpoint: median survival time, dose: 7.5 mg/kg/injection, schedule: Q01DX009 (ip), vehicle: suspension in saline): 123 % of control | T/C (endpoint: median survival time, dose: 10.0 mg/kg/injection, schedule: Q03DX003 (ip), vehicle: saline): 154 % of control | T/C (endpoint: median survival time, dose: 12.5 mg/kg/injection, schedule: Q01DX009 (ip), vehicle: saline with Tween-80): 116 % of control | T/C (endpoint: median survival time, dose: 12.5 mg/kg/injection, schedule: Q01DX009 (ip), vehicle: saline): 121 % of control | T/C (endpoint: median survival time, dose: 20.0 mg/kg/injection, schedule: Q01DX009 (ip), vehicle: other): 156 % of control | T/C (endpoint: median survival time, dose: 40.0 mg/kg/injection, schedule: Q01DX009 (ip), vehicle: other): 166 % of control | T/C (endpoint: median survival time, dose: 40.0 mg/kg/injection, schedule: Q04DX003 (ip), vehicle: other): 112 % of control | T/C (endpoint: median survival time, dose: 50.0 mg/kg/injection, schedule: Q01DX009 (ip), vehicle: DMSO): 169 % of control | T/C (endpoint: median survival time, dose: 50.0 mg/kg/injection, schedule: Q03DX003 (ip), vehicle: saline): 152 % of control and 169 % of control | T/C (endpoint: median survival time, dose: 80.0 mg/kg/injection, schedule: Q01DX001 (ip), vehicle: other): 174 % of control | T/C (endpoint: median survival time, dose: 80.0 mg/kg/injection, schedule: Q01DX001 (ip), vehicle: water): 178 % of control | T/C (endpoint: median survival time, dose: 80.0 mg/kg/injection, schedule: Q04DX003 (ip), vehicle: other): 153 % of control | T/C (endpoint: median survival time, dose: 120.0 mg/kg/injection, schedule: Q01DX001 (ip), vehicle: other): 182 % of control | T/C (endpoint: median survival time, dose: 120.0 mg/kg/injection, schedule: Q01DX001 (ip), vehicle: water): 160 % of control | T/C (endpoint: median survival time, dose: 120.0 mg/kg/injection, schedule: Q04DX003 (ip), vehicle: other): 150 % of control

CC[N+]1(C2CCC3CCC2C3O)CCOCC1 (centres undefined)
T/C (endpoint: mean survival time, dose: 25.0 mg/kg/injection, schedule: Q01DX009 (ip), vehicle: saline): 91 % of control | T/C (endpoint: mean survival time, dose: 25.0 mg/kg/injection, schedule: Q04DX003 (ip), vehicle: saline): 95 % of control | T/C (endpoint: mean survival time, dose: 50.0 mg/kg/injection, schedule: Q01DX009 (ip), vehicle: saline): 94 % of control | T/C (endpoint: mean survival time, dose: 50.0 mg/kg/injection, schedule: Q04DX003 (ip), vehicle: saline): 97 % of control | T/C [4]: 100 % of control | T/C (endpoint: mean survival time, dose: 100.0 mg/kg/injection, schedule: Q01DX009 (ip), vehicle: saline): 92 % of control | T/C (endpoint: mean survival time, dose: 100.0 mg/kg/injection, schedule: Q04DX003 (ip), vehicle: saline): 100 % of control

N#CN=C(N)NC(=O)c1ccccc1
T/C [5]: 102 % of control | T/C [6]: 98 % of control

NC1CCCCC1N.Nc1c(N=Nc2ccc(-c3ccc(N=Nc4cc(S(=O)(=O)[O-])c5ccccc5c4N)cc3)cc2)cc(S(=O)(=O)[O-])c2ccccc12.[OH3+].[OH3+].[Pt+4]
T/C (endpoint: median survival time, dose: 3.12 mg/kg/injection, schedule: Q04DX003 (ip), vehicle: saline with Tween-80): 108 % of control | T/C (endpoint: median survival time, dose: 6.25 mg/kg/injection, schedule: Q04DX003 (ip), vehicle: saline with Tween-80): 100 % of control | T/C (endpoint: median survival time, dose: 12.5 mg/kg/injection, schedule: Q04DX003 (ip), vehicle: saline with Tween-80): 102 % of control | T/C (endpoint: median survival time, dose: 25.0 mg/kg/injection, schedule: Q04DX003 (ip), vehicle: saline with Tween-80): 98 % of control | T/C (endpoint: median survival time, dose: 50.0 mg/kg/injection, schedule: Q04DX003 (ip), vehicle: saline with Tween-80): 106 % of control | T/C (endpoint: median survival time, dose: 100.0 mg/kg/injection, schedule: Q04DX003 (ip), vehicle: saline with Tween-80): 97 % of control | T/C (endpoint: median survival time, dose: 200.0 mg/kg/injection, schedule: Q04DX003 (ip), vehicle: saline with Tween-80): 100 % of control

CC(=O)N(C)N=Nc1ccc(C(C)C)cc1
T/C (endpoint: mean survival time, dose: 9.37 mg/kg/injection, schedule: Q04DX003 (ip), vehicle: Klucel (hydroxypropylcellulose) (HPC)): 97 % of control | T/C (endpoint: median survival time, dose: 2.3 mg/kg/injection, schedule: Q01DX009 (ip), vehicle: Klucel (hydroxypropylcellulose) (HPC)): 116 % of control | T/C (endpoint: median survival time, dose: 4.6 mg/kg/injection, schedule: Q01DX009 (ip), vehicle: Klucel (hydroxypropylcellulose) (HPC)): 110 % of control | T/C (endpoint: median survival time, dose: 9.37 mg/kg/injection, schedule: Q01DX009 (ip), vehicle: Klucel (hydroxypropylcellulose) (HPC)): 116 % of control

O=C/C=C/C=C/C=C/c1ccccc1
T/C (endpoint: mean survival time, dose: 62.5 mg/kg/injection, schedule: Q01DX001 (ip), vehicle: distilled water + alcohol): 93 % of control | T/C (endpoint: mean survival time, dose: 125.0 mg/kg/injection, schedule: Q01DX001 (ip), vehicle: distilled water + alcohol): 96 % of control | T/C (endpoint: mean survival time, dose: 250.0 mg/kg/injection, schedule: Q01DX001 (ip), vehicle: distilled water + alcohol): 92 % of control | T/C (endpoint: mean survival time, dose: 500.0 mg/kg/injection, schedule: Q01DX001 (ip), vehicle: distilled water + alcohol): 90 % of control | T/C (endpoint: median survival time, dose: 50.0 mg/kg/injection, schedule: Q01DX009 (ip), vehicle: saline): 98 % of control | T/C (endpoint: median survival time, dose: 100.0 mg/kg/injection, schedule: Q01DX009 (ip), vehicle: saline): 106 % of control | T/C (endpoint: median survival time, dose: 200.0 mg/kg/injection, schedule: Q01DX009 (ip), vehicle: saline): 100 % of control | T/C (endpoint: median survival time, dose: 400.0 mg/kg/injection, schedule: Q01DX009 (ip), vehicle: saline): 101 % of control | T/C (endpoint: median survival time, dose: 800.0 mg/kg/injection, schedule: Q01DX009 (ip), vehicle: saline): 100 % of control

c1ccc(NC2CCN(C3(c4ccccc4)CCCCC3)CC2)cc1
T/C (endpoint: mean survival time, dose: 25.0 mg/kg/injection, schedule: Q04DX002 (ip), vehicle: saline): 97 % of control | T/C (endpoint: mean survival time, dose: 50.0 mg/kg/injection, schedule: Q04DX002 (ip), vehicle: saline): 94 % of control

COC(=O)C(Cc1[nH]c(N=Nc2ccc(Br)cc2)nc1N=Nc1ccc(Br)cc1)NC(C)=O (centres undefined)
T/C [7]: 93 % of control | T/C [8]: 96 % of control | T/C [9]: 96 % of control

CCCCN(C)C(=O)Oc1cccc(NC(=O)OC)c1
T/C [1]: 94 % of control | T/C [2]: 100 % of control

CCOC(=O)c1ccc(NC(=O)Oc2cc3ccccc3cc2C(=O)Nc2ccccc2)cc1
T/C (endpoint: mean survival time, dose: 25.0 mg/kg/injection, schedule: Q01DX001 (ip), vehicle: saline with Tween-80): 87 % of control | T/C [10]: 94 % of control and 96 % of control | T/C (endpoint: mean survival time, dose: 25.0 mg/kg/injection, schedule: Q04DX002 (ip), vehicle: saline with Tween-80): 97 % of control | T/C (endpoint: mean survival time, dose: 25.0 mg/kg/injection, schedule: Q04DX003 (ip), vehicle: saline with Tween-80): 96 % of control and 98 % of control | T/C (endpoint: mean survival time, dose: 50.0 mg/kg/injection, schedule: Q01DX001 (ip), vehicle: saline with Tween-80): 87 % of control | T/C [11]: 88 % of control and 92 % of control | T/C (endpoint: mean survival time, dose: 50.0 mg/kg/injection, schedule: Q04DX002 (ip), vehicle: saline with Tween-80): 88 % of control and 92 % of control | T/C (endpoint: mean survival time, dose: 50.0 mg/kg/injection, schedule: Q04DX003 (ip), vehicle: saline with Tween-80): 88 % of control and 92 % of control | T/C [4]: 87 % of control | T/C [1]: 91 % of control and 96 % of control | T/C [5]: 92 % of control | T/C [8]: 87 % of control | T/C [6]: 92 % of control and 93 % of control

COC(=O)C1(C)CCC(=O)O1 (centres undefined)
T/C [7]: 98 % of control | T/C [8]: 98 % of control | T/C [9]: 102 % of control

O=C(CNC(=O)NCc1ccco1)N/N=C/c1cc(Br)ccc1O
T/C (endpoint: mean survival time, dose: 12.5 mg/kg/injection, schedule: Q01DX009 (ip), vehicle: saline with Tween-80): 94 % of control | T/C [10]: 94 % of control | T/C [11]: 96 % of control | T/C [2]: 100 % of control

O=C(O)CCC(=O)Nc1ccccc1C(=O)O
T/C [1]: 102 % of control | T/C [2]: 93 % of control | T/C [3]: 96 % of control

COC(=O)C#CBr
T/C (endpoint: mean survival time, dose: 6.25 mg/kg/injection, schedule: Q04DX003 (ip), vehicle: other): 103 % of control | T/C (endpoint: mean survival time, dose: 12.5 mg/kg/injection, schedule: Q04DX003 (ip), vehicle: other): 96 % of control

COC(=O)C(CCSC)NC(=O)C(C)NC(=O)OCc1ccccc1 (centres undefined)
T/C [1]: 98 % of control | T/C [2]: 95 % of control | T/C [3]: 95 % of control

From PubChem BioAssay AID256 (DTP/NCI, 2004)
